According to patent publication US8530522B2, “Organic compounds” (Novartis AG, priority 2008, dated 2013):
Counter-ions that a name gives are not always drawn.

Key:
[1] = Storage of Form I samples at elevated temperature and 75% r.h.; format: physicochemical
[2] = Water sorption/desorption isotherms (Dynamic Vapor System DVS-1); format: physicochemical
Protocol: Sorption/desorption isotherms were measured using the Dynamic Vapor System (DVS-1). Measurement was carried out at 25° C. and 40° C.

CCCCCCCCc1ccc(CCC(N)(CO)CO)cc1 [Form I]
solid form after storage ([1]; stored 1 month at 60° C. and 75% r.h.): conversion to the hydrate form
solid form after storage ([1]; stored 1 month at 80° C. and 75% r.h.): conversion to the hydrate form

CCCCCCCCc1ccc(CCC(N)(CO)CO)cc1 [FTY720 HCl, 2-amino-2-[2-(4-octylphenyl)ethyl]propane-1,3-diol hydrochloride salt]
relative humidity of first water uptake, water sorption isotherm ([2]; isotherm recorded at 25° C.): 90 % r.h.
relative humidity of first significant water uptake, water sorption isotherm ([2]; isotherm recorded at 40° C.): 80 % r.h.
